Laboratory results taken from ChEMBL document CHEMBL3808279, “Sequential one-pot synthesis of bis(indolyl)glyoxylamides: Evaluation of antibacterial and anticancer activities” (Bioorg Med Chem Lett, 2016).
Values after ≈ are worked out from the molar mass of the structure shown. Active and inactive are the calls of the source. No cut-off for these calls is given here.

Test system: Staphylococcus aureus
Experiment: Antibacterial activity against Staphylococcus aureus after 18 to 24 hrs by microbroth dilution method
Format: functional
Conditions: not given

SMILES | inhibition zone (IZ) [mm]
O=C(N[C@H](CO)[C@H](O)c1ccc([N+](=O)[O-])cc1)C(Cl)Cl [CHLORAMPHENICOL] | 21
O=C(NCCc1c[nH]c2ccccc12)C(=O)c1cn(Cc2ccc(F)cc2)c2ccccc12 | 14
Cn1cc(C(=O)C(=O)NCCc2c[nH]c3ccccc23)c2ccccc21 | 16
CCn1cc(C(=O)C(=O)NCCc2c[nH]c3ccccc23)c2ccccc21 | 14
COc1ccc2c(C(=O)C(=O)NCCc3c[nH]c4ccccc34)c[nH]c2c1 | 14
O=C(NCCc1c[nH]c2ccccc12)C(=O)c1cn(Cc2ccc(Cl)cc2)c2ccc(F)cc12 | 13

Same assay, conditions: Staphylococcus aureus

SMILES | MIC [µg/mL]
O=C(NCCc1c[nH]c2ccccc12)C(=O)c1cn(Cc2ccc(F)cc2)c2ccccc12 | > 100
Cn1cc(C(=O)C(=O)NCCc2c[nH]c3ccccc23)c2ccccc21 | 50 (≈ 145 µM)
CCn1cc(C(=O)C(=O)NCCc2c[nH]c3ccccc23)c2ccccc21 | 100 (≈ 278 µM)
COc1ccc2c(C(=O)C(=O)NCCc3c[nH]c4ccccc34)c[nH]c2c1 | 100 (≈ 277 µM)
O=C(NCCc1c[nH]c2ccccc12)C(=O)c1cn(Cc2ccc(Cl)cc2)c2ccc(F)cc12 | 100 (≈ 211 µM)

Test system: Escherichia coli
Experiment: Antibacterial activity against Escherichia coli after 18 to 24 hrs by microbroth dilution method
Format: functional
Conditions: not given

SMILES | inhibition zone (IZ) [mm]
O=C(N[C@H](CO)[C@H](O)c1ccc([N+](=O)[O-])cc1)C(Cl)Cl [CHLORAMPHENICOL] | 22
O=C(NCCc1c[nH]c2ccccc12)C(=O)c1cn(Cc2ccc(F)cc2)c2ccccc12 | 15
Cn1cc(C(=O)C(=O)NCCc2c[nH]c3ccccc23)c2ccccc21 | 18
CCn1cc(C(=O)C(=O)NCCc2c[nH]c3ccccc23)c2ccccc21 | 14
COc1ccc2c(C(=O)C(=O)NCCc3c[nH]c4ccccc34)c[nH]c2c1 | 14
O=C(NCCc1c[nH]c2ccccc12)C(=O)c1cn(Cc2ccc(Cl)cc2)c2ccc(F)cc12 | 14

Same assay, conditions: Escherichia coli

SMILES | MIC [µg/mL]
O=C(NCCc1c[nH]c2ccccc12)C(=O)c1cn(Cc2ccc(F)cc2)c2ccccc12 | 100 (≈ 228 µM)
Cn1cc(C(=O)C(=O)NCCc2c[nH]c3ccccc23)c2ccccc21 | 12.5 (≈ 36.2 µM)
CCn1cc(C(=O)C(=O)NCCc2c[nH]c3ccccc23)c2ccccc21 | > 50
COc1ccc2c(C(=O)C(=O)NCCc3c[nH]c4ccccc34)c[nH]c2c1 | > 50
O=C(NCCc1c[nH]c2ccccc12)C(=O)c1cn(Cc2ccc(Cl)cc2)c2ccc(F)cc12 | 100 (≈ 211 µM)

Test system: Bacillus subtilis
Experiment: Bactericidal activity against Bacillus subtilis at 3 times MIC after 2 hrs by time-kill analysis
Format: functional
Conditions: not given

SMILES | Activity [%]
Cn1cc(C(=O)C(=O)NCCc2c[nH]c3ccccc23)c2ccccc21 | >80

Test system: not listed separately
Experiment: Stability of compound at pH 7.4 up to 48 hrs by HPLC analysis
Format: physicochemical
Conditions: buffer, pH 7.4, 48 h

SMILES | Stability
Cn1cc(C(=O)C(=O)NCCc2c[nH]c3ccccc23)c2ccccc21 | Stable

Test system: Escherichia coli
Experiment: Bactericidal activity against Escherichia coli assessed as maximum bactericidal reduction at 3 times MIC after 3 hrs by time-kill analysis
Format: functional, organism-based
Conditions: not given

SMILES | Activity
Cn1cc(C(=O)C(=O)NCCc2c[nH]c3ccccc23)c2ccccc21 | Active

Test system: Klebsiella pneumoniae
Experiment: Antibacterial activity against Klebsiella pneumoniae after 18 to 24 hrs by microbroth dilution method
Format: functional
Conditions: not given

SMILES | inhibition zone (IZ) [mm]
O=C(N[C@H](CO)[C@H](O)c1ccc([N+](=O)[O-])cc1)C(Cl)Cl [CHLORAMPHENICOL] | 20
O=C(NCCc1c[nH]c2ccccc12)C(=O)c1cn(Cc2ccc(F)cc2)c2ccccc12 | 13
Cn1cc(C(=O)C(=O)NCCc2c[nH]c3ccccc23)c2ccccc21 | 17
CCn1cc(C(=O)C(=O)NCCc2c[nH]c3ccccc23)c2ccccc21 | 13
COc1ccc2c(C(=O)C(=O)NCCc3c[nH]c4ccccc34)c[nH]c2c1 | 15
O=C(NCCc1c[nH]c2ccccc12)C(=O)c1cn(Cc2ccc(Cl)cc2)c2ccc(F)cc12 | 12

Same assay, conditions: Klebsiella pneumoniae

SMILES | MIC [µg/mL]
O=C(NCCc1c[nH]c2ccccc12)C(=O)c1cn(Cc2ccc(F)cc2)c2ccccc12 | > 100
Cn1cc(C(=O)C(=O)NCCc2c[nH]c3ccccc23)c2ccccc21 | 25 (≈ 72.4 µM)
CCn1cc(C(=O)C(=O)NCCc2c[nH]c3ccccc23)c2ccccc21 | > 100
COc1ccc2c(C(=O)C(=O)NCCc3c[nH]c4ccccc34)c[nH]c2c1 | 100 (≈ 277 µM)
O=C(NCCc1c[nH]c2ccccc12)C(=O)c1cn(Cc2ccc(Cl)cc2)c2ccc(F)cc12 | > 100

Test system: Escherichia coli
Experiment: Bactericidal activity against Escherichia coli at 3 times MIC after 2 hrs by time-kill analysis
Format: functional
Conditions: not given

SMILES | Activity [%]
Cn1cc(C(=O)C(=O)NCCc2c[nH]c3ccccc23)c2ccccc21 | 80

Test system: HeLa
Experiment: Cytotoxicity against human HeLa cells after 48 hrs by MTT assay
Format: functional, cell-based
Conditions: not given

SMILES | IC50 [µM]
O=C(NCCc1c[nH]c2ccccc12)C(=O)c1cn(Cc2ccc(F)cc2)c2ccccc12 | > 100
Cn1cc(C(=O)C(=O)NCCc2c[nH]c3ccccc23)c2ccccc21 | > 100
CCn1cc(C(=O)C(=O)NCCc2c[nH]c3ccccc23)c2ccccc21 | > 100
COc1ccc2c(C(=O)C(=O)NCCc3c[nH]c4ccccc34)c[nH]c2c1 | > 100
O=C(NCCc1c[nH]c2ccccc12)C(=O)c1cn(Cc2ccc(Cl)cc2)c2ccc(F)cc12 | > 100

Test system: Bacillus subtilis
Experiment: Antibacterial activity against Bacillus subtilis after 18 to 24 hrs by microbroth dilution method
Format: functional
Conditions: not given

SMILES | inhibition zone (IZ) [mm]
O=C(N[C@H](CO)[C@H](O)c1ccc([N+](=O)[O-])cc1)C(Cl)Cl [CHLORAMPHENICOL] | 22
O=C(NCCc1c[nH]c2ccccc12)C(=O)c1cn(Cc2ccc(F)cc2)c2ccccc12 | 12
Cn1cc(C(=O)C(=O)NCCc2c[nH]c3ccccc23)c2ccccc21 | 18
CCn1cc(C(=O)C(=O)NCCc2c[nH]c3ccccc23)c2ccccc21 | 14
COc1ccc2c(C(=O)C(=O)NCCc3c[nH]c4ccccc34)c[nH]c2c1 | 15
O=C(NCCc1c[nH]c2ccccc12)C(=O)c1cn(Cc2ccc(Cl)cc2)c2ccc(F)cc12 | 13

Same assay, conditions: Bacillus subtilis

SMILES | MIC [µg/mL]
O=C(NCCc1c[nH]c2ccccc12)C(=O)c1cn(Cc2ccc(F)cc2)c2ccccc12 | > 100
Cn1cc(C(=O)C(=O)NCCc2c[nH]c3ccccc23)c2ccccc21 | > 25
CCn1cc(C(=O)C(=O)NCCc2c[nH]c3ccccc23)c2ccccc21 | 100 (≈ 278 µM)
COc1ccc2c(C(=O)C(=O)NCCc3c[nH]c4ccccc34)c[nH]c2c1 | > 100
O=C(NCCc1c[nH]c2ccccc12)C(=O)c1cn(Cc2ccc(Cl)cc2)c2ccc(F)cc12 | > 50

Test system: Staphylococcus aureus
Experiment: Bactericidal activity against Staphylococcus aureus at 3 times MIC after 2 hrs by time-kill analysis
Format: functional
Conditions: not given

SMILES | Activity [%]
Cn1cc(C(=O)C(=O)NCCc2c[nH]c3ccccc23)c2ccccc21 | >65

Test system: Pseudomonas putida
Experiment: Bactericidal activity against Pseudomonas putida assessed as maximum bactericidal reduction at 3 times MIC after 3 hrs by time-kill analysis
Format: functional, organism-based
Conditions: not given

SMILES | Activity
Cn1cc(C(=O)C(=O)NCCc2c[nH]c3ccccc23)c2ccccc21 | Active

Test system: not listed separately
Experiment: Cytotoxicity against human HEK293T cells after 48 hrs by MTT assay
Format: cell-based
Conditions: HEK-293T

SMILES | IC50 [µM]
O=C(NCCc1c[nH]c2ccccc12)C(=O)c1cn(Cc2ccc(F)cc2)c2ccccc12 | > 100
Cn1cc(C(=O)C(=O)NCCc2c[nH]c3ccccc23)c2ccccc21 | > 100
CCn1cc(C(=O)C(=O)NCCc2c[nH]c3ccccc23)c2ccccc21 | > 100
COc1ccc2c(C(=O)C(=O)NCCc3c[nH]c4ccccc34)c[nH]c2c1 | > 100
O=C(NCCc1c[nH]c2ccccc12)C(=O)c1cn(Cc2ccc(Cl)cc2)c2ccc(F)cc12 | > 100

Test system: not listed separately
Experiment: Cytotoxicity against human BxPC3 cells after 48 hrs by MTT assay
Format: functional, cell-based
Conditions: BXPC-3, 48 h

SMILES | IC50 [µM]
O=C(NCCc1c[nH]c2ccccc12)C(=O)c1cn(Cc2ccc(F)cc2)c2ccccc12 | > 100
Cn1cc(C(=O)C(=O)NCCc2c[nH]c3ccccc23)c2ccccc21 | > 100
CCn1cc(C(=O)C(=O)NCCc2c[nH]c3ccccc23)c2ccccc21 | > 100
COc1ccc2c(C(=O)C(=O)NCCc3c[nH]c4ccccc34)c[nH]c2c1 | > 100
O=C(NCCc1c[nH]c2ccccc12)C(=O)c1cn(Cc2ccc(Cl)cc2)c2ccc(F)cc12 | > 100

Test system: not listed separately
Experiment: Cytotoxicity against human PC3 cells after 48 hrs by MTT assay
Format: functional, cell-based
Conditions: PC-3, 48 h

SMILES | IC50 [µM]
O=C(NCCc1c[nH]c2ccccc12)C(=O)c1cn(Cc2ccc(F)cc2)c2ccccc12 | > 100
Cn1cc(C(=O)C(=O)NCCc2c[nH]c3ccccc23)c2ccccc21 | > 100
CCn1cc(C(=O)C(=O)NCCc2c[nH]c3ccccc23)c2ccccc21 | > 100
COc1ccc2c(C(=O)C(=O)NCCc3c[nH]c4ccccc34)c[nH]c2c1 | > 100
O=C(NCCc1c[nH]c2ccccc12)C(=O)c1cn(Cc2ccc(Cl)cc2)c2ccc(F)cc12 | > 100

Test system: not listed separately
Experiment: Cytotoxicity against human C4-2 cells after 48 hrs by MTT assay
Format: functional, cell-based
Conditions: LNCaP C4-2, 48 h

SMILES | IC50 [µM]
O=C(NCCc1c[nH]c2ccccc12)C(=O)c1cn(Cc2ccc(F)cc2)c2ccccc12 | > 100
Cn1cc(C(=O)C(=O)NCCc2c[nH]c3ccccc23)c2ccccc21 | > 100
CCn1cc(C(=O)C(=O)NCCc2c[nH]c3ccccc23)c2ccccc21 | > 100
COc1ccc2c(C(=O)C(=O)NCCc3c[nH]c4ccccc34)c[nH]c2c1 | > 100
O=C(NCCc1c[nH]c2ccccc12)C(=O)c1cn(Cc2ccc(Cl)cc2)c2ccc(F)cc12 | > 100

Test system: not listed separately
Experiment: Stability of compound at pH 4.5 up to 48 hrs by HPLC analysis
Format: physicochemical
Conditions: buffer, pH 4.5, 48 h

SMILES | Stability
Cn1cc(C(=O)C(=O)NCCc2c[nH]c3ccccc23)c2ccccc21 | Stable

Test system: Pseudomonas putida
Experiment: Antibacterial activity against Pseudomonas putida after 18 to 24 hrs by microbroth dilution method
Format: functional
Conditions: not given

SMILES | inhibition zone (IZ) [mm]
O=C(N[C@H](CO)[C@H](O)c1ccc([N+](=O)[O-])cc1)C(Cl)Cl [CHLORAMPHENICOL] | 21
O=C(NCCc1c[nH]c2ccccc12)C(=O)c1cn(Cc2ccc(F)cc2)c2ccccc12 | 15
Cn1cc(C(=O)C(=O)NCCc2c[nH]c3ccccc23)c2ccccc21 | 17
CCn1cc(C(=O)C(=O)NCCc2c[nH]c3ccccc23)c2ccccc21 | 12
COc1ccc2c(C(=O)C(=O)NCCc3c[nH]c4ccccc34)c[nH]c2c1 | 15
O=C(NCCc1c[nH]c2ccccc12)C(=O)c1cn(Cc2ccc(Cl)cc2)c2ccc(F)cc12 | 14

Same assay, conditions: Pseudomonas putida

SMILES | MIC [µg/mL]
O=C(NCCc1c[nH]c2ccccc12)C(=O)c1cn(Cc2ccc(F)cc2)c2ccccc12 | 100 (≈ 228 µM)
Cn1cc(C(=O)C(=O)NCCc2c[nH]c3ccccc23)c2ccccc21 | > 25
CCn1cc(C(=O)C(=O)NCCc2c[nH]c3ccccc23)c2ccccc21 | > 100
COc1ccc2c(C(=O)C(=O)NCCc3c[nH]c4ccccc34)c[nH]c2c1 | > 50
O=C(NCCc1c[nH]c2ccccc12)C(=O)c1cn(Cc2ccc(Cl)cc2)c2ccc(F)cc12 | 100 (≈ 211 µM)

Test system: MDA-MB-231
Experiment: Cytotoxicity against human MDA-MB-231 cells after 48 hrs by MTT assay
Format: functional, cell-based
Conditions: MDA-MB-231, 48 h

SMILES | IC50 [µM]
O=C(NCCc1c[nH]c2ccccc12)C(=O)c1cn(Cc2ccc(F)cc2)c2ccccc12 | > 100
Cn1cc(C(=O)C(=O)NCCc2c[nH]c3ccccc23)c2ccccc21 | > 100
CCn1cc(C(=O)C(=O)NCCc2c[nH]c3ccccc23)c2ccccc21 | > 100
COc1ccc2c(C(=O)C(=O)NCCc3c[nH]c4ccccc34)c[nH]c2c1 | > 100
O=C(NCCc1c[nH]c2ccccc12)C(=O)c1cn(Cc2ccc(Cl)cc2)c2ccc(F)cc12 | > 100

Test system: Pseudomonas putida
Experiment: Bactericidal activity against Pseudomonas putida at 3 times MIC after 2 hrs by time-kill analysis
Format: functional
Conditions: not given

SMILES | Activity [%]
Cn1cc(C(=O)C(=O)NCCc2c[nH]c3ccccc23)c2ccccc21 | 80
